Take `CCn1c(-c2ccc(-n3ccnc3)cc2)cnc1[C@H](Cc1ccccn1)N(C=O)c1cc2cc(OC)ccc2o1.Cl.Cl.Cl`: the melting point – broadly, the temperature, or range, at which the solid turns liquid – was 190 to 195 °C.
The result for `COc1ccc2oc(N(C=O)[C@@H](Cc3ccccn3)c3ncc(-c4ccc(N5CCOCC5)cc4)n3C)cc2c1` [Example 3, (1S)-(5-Methoxybenzo[b]furan-2-yl)-N-[1-[1-methyl-5-(4-morpholinophenyl)imidazol-2-yl]-2-(2-pyridyl)ethyl]formamide] reads 122 to 124 °C; that for `Cn1c(-c2cccs2)cnc1[C@H](Cc1ccccn1)N(C=O)c1cc2cc(Cl)ccc2o1` [Example 20, (1S)-(5-Chlorobenzo[b]furan-2-yl)-N-[1-[1-methyl-5-(2-thienyl)-imidazol-2-yl]-2-(2-pyridyl)ethyl]formamide], 70 to 74 °C.
For `Cn1c(-c2ccc(-n3ccnc3)cc2)cnc1[C@H](Cc1ccccn1)N(C=O)c1cc2cc(F)ccc2o1` [Example 54, (1S)-(5-Fluorobenzo[b]furan-2-yl)-N-[1-[5-[4-(1-imidazolyl)-phenyl]-1-methylimidazol-2-yl]-2-(2-pyridyl)ethyl]formamide] the value was 180 to 182 °C; for `CCCn1c(-c2ccc(-n3ccnc3)cc2)cnc1[C@H](Cc1ccccn1)N(C=O)c1cc2cc(Cl)ccc2o1` [Example 48, (1S)-(5-Chlorobenzo[b]furan-2-yl)-N-[1-[5-[4-(1-imidazolyl)-phenyl]-1-propylimidazol-2-yl]-2-(2-pyridyl)ethyl]formamide], 173 to 175 °C.
For `Cn1ccnc1-c1ccc(-c2cnc([C@H](Cc3ccccn3)N(C=O)c3cc4ccccc4[nH]3)n2C)cc1` [Example 22, (1S)-(Indol-2-yl)-N-[1-[5-[4-(1-methylimidazol-2-yl)phenyl]-1-methylimidazol-2-yl]-2-(2-pyridyl)ethyl]formamide] the value was 218 to 222 °C.
On to `CCn1c(-c2ccc(-n3ccnc3)cc2)cnc1[C@H](Cc1ccccn1)N(C=O)c1cc2cc([N+](=O)[O-])ccc2o1.Cl.Cl.Cl`, for which the melting point lay in the range of 190 to 200 °C.
The result for `COc1ccc2oc(N(C=O)[C@@H](Cc3ccccn3)c3ncc(-c4ccc(-c5ccccc5)cc4)n3C)cc2c1` [Example 9, (1S)-N-[1-[5-(4-Biphenylyl)-1-methylimidazol-2-yl]-2-(2-pyridyl)-ethyl](5-methoxybenzo[b]furan-2-yl)formamide] reads 150 to 152 °C.
The result for `Cn1c(-c2ccc([N+](=O)[O-])cc2)cnc1[C@H](Cc1ccccn1)N(C=O)c1cc2cc(Cl)ccc2o1` [Example 12, (1S)-(5-Chlorobenzo[b]furan-2-yl)-N-[1-[1-methyl-5-(4-nitrophenyl)imidazol-2-yl]-2-(2-pyridyl)ethyl]formamide] reads 199 to 201 °C.
The result for `COc1ccc2oc(N(C=O)[C@@H](Cc3ccccn3)c3ncc(-c4ccc(-n5ccnc5)cc4)n3C)cc2c1` [Example 51, (1S)-N-[1-[5-[4-(1-Imidazolyl)phenyl]-1-methylimidazol-2-yl]-2-(2-pyridyl)ethyl](5-methoxybenzo[b]furan-2-yl)formamide] reads 151 to 153 °C; that for `CCn1c(-c2ccc(-n3ccnc3)cc2)cnc1[C@H](Cc1ccccn1)N(C=O)c1cc2cc(F)ccc2o1` [Example 55, (1S)-N-[1-[1-Ethyl-5-[4-(1-imidazolyl)phenyl]imidazol-2-yl]-2-(2-pyridyl)ethyl](5-fluorobenzo[b]furan-2-yl)formamide], 80 to 84 °C.
The molecule `Cn1c(-c2ccc(-n3ccnc3)cc2)cnc1[C@H](Cc1ccccn1)N(C=O)c1cc2cc([N+](=O)[O-])ccc2s1` [Compound (d), (1S)-N-[1-[5-[4-(1-imidazolyl)phenyl]-1-methylimidazol-2-yl]-2-(2-pyridyl)ethyl](5-nitrobenzo[b]thiophen-2-yl)formamide] had a melting point of 228 to 231 °C.

The values above are taken from patent US20020132809A1, “Heterocyclic carboxamide derivatives as inhibitors of nitric oxide production” (Fujisawa Pharmaceutical Co. Ltd., priority 1998, published 2002).
